According to PMC3047509 (Journal of the American Chemical Society, 2011):
Bridge positions count the residues as written; N and C are the ends. Peptide text beside a SMILES is read from it.

Experiments:
[1] = molecular target: CBP BRD (Homo sapiens, UniProt Q92793); assay: competition fluorescent polarization; format: binding; details: FP competition assay; relative to linear p53-K382ac
[2] = system: p53-induced p21 activation; assay: p53-based p21-luciferase assay; format: cell-based, human; details: HCT116 cells, doxorubicin treatment
[3] = system: endogenous p53 and p21 proteins in HCT116 cells; assay: western blot of endogenous p53 and p21 after doxorubicin; format: cell-based, human; details: peptide 12 hours, then doxorubicin 300 ng/ml for 24 hrs

Sequence of CBP BRD (Q92793 1085-1192 limits assumed): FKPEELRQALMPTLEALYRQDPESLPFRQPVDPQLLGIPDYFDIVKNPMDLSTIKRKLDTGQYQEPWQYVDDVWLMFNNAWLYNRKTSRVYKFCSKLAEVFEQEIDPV

Compound | fold increase in binding affinity over linear p53-K382ac peptide [1] [fold] | inhibition of p53-induced p21 luciferase activation [2] | protein level of endogenous p53 and p21 [3]
CC(=O)NCCCC[C@@H]1NC(=O)[C@H](CCCCN)NC(=O)[C@H](Cc2c[nH]cn2)NC(=O)[C@@H](N)CSSC[C@@H](C(=O)N[C@@H](Cc2ccccc2)C(=O)N[C@@H](CCCCN)C(N)=O)NC(=O)[C@H](CC(C)C)NC1=O [compound 1] (H-CHKK(Ac)LCFK-NH2; disulfide 1-6; N-terminus and C-terminus assumed) | 9 | – | –
CC(=O)NCCCC[C@@H]1NC(=O)[C@H](CCCCN)NC(=O)[C@H](Cc2c[nH]c3ccccc23)NC(=O)[C@@H](N)CSSC[C@@H](C(=O)N[C@@H](Cc2ccccc2)C(=O)N[C@@H](CCCCN)C(N)=O)NC(=O)[C@H](CC(C)C)NC1=O [compound 4] (H-CWKK(Ac)LCFK-NH2; disulfide 1-6; N-terminus and C-terminus assumed) | 24 | dose-dependent inhibition | effectively reduced the protein level of endogenous p53 and p21
